From the supplement of paper PMC10307832

Columns and labels:
Experiment in all cases: relative viability (nuclei count vs DMSO), 5 days (fraction); higher = more cells survive
[1] = compound: CN(C)C[C@@H]1CCn2cc(c3ccccc32)C2=C(C(=O)NC2=O)c2cn(c3ccccc23)CCO1 [Ruboxistaurin] + O=C(c1cc(Cc2n[nH]c(=O)c3ccccc23)ccc1F)N1CCN(C(=O)C2CC2)CC1 [Olaparib] (partner 8 µM)
Summary of the method: (§1)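 Lung cancer cell lines, seeded in 1536-well plates, were treated the following day by pin tool with a single drug or with five library-drug doses (not always all listed) in √10 steps on top of a fixed anchor-drug dose. Cells were fixed and nuclei stained in one step after 5 days, and nuclei were counted. Relative viability is the nuclei count for treated wells divided by that for vehicle wells, reported as medians of duplicate plates.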

[2] = compound: CN(C)C[C@@H]1CCn2cc(c3ccccc32)C2=C(C(=O)NC2=O)c2cn(c3ccccc23)CCO1 [Ruboxistaurin] + CS(=O)(=O)N1CCN(Cc2cc3nc(-c4cccc5[nH]ncc45)nc(N4CCOCC4)c3s2)CC1 [Pictilisib] (partner 1 µM)
Summary of the method: as §1

[3] = compound: CN(C)C[C@@H]1CCn2cc(c3ccccc32)C2=C(C(=O)NC2=O)c2cn(c3ccccc23)CCO1 [Ruboxistaurin] + CC(=O)Nc1cccc(-n2c(=O)n(C3CC3)c(=O)c3c(Nc4ccc(I)cc4F)n(C)c(=O)c(C)c32)c1 [Trametinib] (partner 0.02 µM)
Summary of the method: as §1

[4] = compound: CN(C)C[C@@H]1CCn2cc(c3ccccc32)C2=C(C(=O)NC2=O)c2cn(c3ccccc23)CCO1 [Ruboxistaurin] + NC(=O)Nc1cc(-c2cccc(F)c2)sc1C(=O)N[C@H]1CCCNC1 [AZD7762] (partner 0.2 µM)
Summary of the method: as §1

[5] = compound: CN(C)C[C@@H]1CCn2cc(c3ccccc32)C2=C(C(=O)NC2=O)c2cn(c3ccccc23)CCO1 [Ruboxistaurin] + C[C@@H](Oc1cc(-c2cnn(C3CCNCC3)c2)cnc1N)c1c(Cl)ccc(F)c1Cl [Crizotinib] (partner 1 µM)
Summary of the method: as §1

Cell Line	relative viability ([1]; first compound 0.08 µM)	relative viability ([1]; first compound 0.8 µM)	relative viability ([1]; first compound 2.53 µM)	relative viability ([1]; first compound 8 µM)	relative viability ([2]; first compound 0.08 µM)	relative viability ([2]; first compound 0.8 µM)	relative viability ([2]; first compound 2.53 µM)	relative viability ([2]; first compound 8 µM)	relative viability ([3]; first compound 0.08 µM)	relative viability ([3]; first compound 0.8 µM)	relative viability ([3]; first compound 2.53 µM)	relative viability ([3]; first compound 8 µM)	relative viability ([4]; first compound 0.08 µM)	relative viability ([4]; first compound 0.8 µM)	relative viability ([4]; first compound 2.53 µM)	relative viability ([4]; first compound 8 µM)	relative viability ([5]; first compound 0.08 µM)	relative viability ([5]; first compound 0.8 µM)	relative viability ([5]; first compound 2.53 µM)	relative viability ([5]; first compound 8 µM)
EPLC-272H	0.846	0.71	0.918	0.437	0.341	0.303	0.343	0.294	0.347	0.228	0.27	0.257	0.263	0.108	0.276	0.0372	0.926	0.793	0.917	0.932
HCC-366	0.4	0.364	0.372	0.269	0.237	0.116	0.151	0.137	0.393	0.331	0.349	0.321	0.187	0.284	0.27	0.178	0.58	0.518	0.605	0.536
HCC-44	0.978	0.942	0.983	1.04	0.622	0.37	0.596	0.511	1.02	1	1.06	1.21	1.02	1.01	1.02	1.07	0.756	0.674	0.867	0.853
NCI-H23	0.41	0.251	0.361	0.254	0.428	0.374	0.392	0.38	0.375	0.346	0.409	0.32	0.234	0.262	0.185	0.279	0.542	0.395	0.552	0.533
NCI-H727	0.625	0.7	0.722	0.521	0.563	0.244	0.433	0.284	0.361	0.395	0.384	0.367	0.657	0.607	0.487	0.61	0.789	0.696	0.693	0.745
NCI-H1355	0.763	0.712	0.734	0.742	0.473	0.364	0.309	0.276	0.462	0.361	0.394	0.357	0.901	0.615	0.709	0.576	1.08	1	1.04	1
NCI-H1944	0.422	0.353	0.38	0.393	0.332	0.279	0.354	0.31	0.402	0.312	0.395	0.358	0.477	0.544	0.524	0.492	1.15	1.01	1.06	1.03
NCI-H2087	0.601	0.62	0.692	0.57	0.908	0.68	0.837	0.57	0.202	0.135	0.205	0.186	1.46	1.17	1.38	1.44	0.898	0.735	1.08	1.15
NCI-H838	0.867	0.751	0.838	0.641	0.468	0.376	0.371	0.383	0.58	0.461	0.513	0.504	0.749	0.855	0.877	0.977	0.899	0.729	1.03	0.817
LC-2-ad	0.711	0.626	0.697	0.752	0.481	0.347	0.495	0.286	0.953	0.877	0.928	0.984	0.882	0.807	0.862	0.813	0.458	0.406	0.476	0.638
HCC-78	0.821	0.762	0.935	0.746	0.198	0.245	0.195	0.174	0.886	0.711	0.738	0.912	0.735	0.549	0.715	0.536	0.31	0.351	0.323	0.291
LOU-NH91	0.926	0.87	0.941	0.949	0.554	0.494	0.526	0.502	0.802	0.751	0.807	0.773	0.823	0.74	0.792	0.726	0.806	0.694	0.757	0.77
NCI-H1734	0.647	0.518	0.601	0.514	0.471	0.398	0.46	0.352	0.724	0.613	0.691	0.58	0.619	0.503	0.574	0.473	0.719	0.514	0.605	0.66
NCI-H596	0.545	0.59	0.692	0.659	0.472	0.352	0.374	0.346	0.892	0.766	0.727	0.796	1.14	0.942	0.972	0.812	1.03	0.981	1.03	0.795
NCI-H1755	0.974	0.853	0.846	0.775	0.422	0.362	0.373	0.264	0.804	0.713	0.744	0.771	0.417	0.483	0.419	0.525	0.932	0.771	0.868	0.87
NCI-H647	0.575	0.563	0.912	0.562	0.53	0.37	0.417	0.258	0.568	0.374	0.473	0.431	0.529	0.422	0.452	0.371	1.03	0.849	1.15	0.995
HCC-15	0.792	0.651	0.777	0.867	0.774	0.689	0.558	0.662	0.401	0.388	0.409	0.417	1.25	1.2	1.13	1.25	0.815	0.794	0.754	0.845
NCI-H2126	0.888	0.887	0.915	0.936	0.533	0.447	0.541	0.463	0.617	0.552	0.617	0.541	1.03	0.91	0.981	0.962	1.03	0.92	1.07	1
NCI-H2085	0.808	0.703	0.769	0.909	0.447	0.419	0.409	0.324	0.67	0.538	0.64	0.502	1.05	0.957	1.14	0.981	1	0.684	0.874	0.917
BEN	1.31	0.903	1.34	0.888	0.604	0.538	0.535	0.406	1.07	0.976	1.01	0.895	0.833	0.668	0.639	0.509	0.92	0.818	0.894	0.658
NCI-H650	0.462	0.352	0.47	0.425	1.15	0.831	0.848	0.808	1.1	0.914	1.01	0.952	1.09	1.06	1.06	0.953	0.785	0.775	0.733	0.729
LCLC-103H	0.735	0.69	0.729	0.676	0.632	0.611	0.511	0.533	0.703	0.621	0.633	0.678	0.869	0.744	0.788	0.775	1.21	0.929	0.905	1.01
PC-14	0.246	0.302	0.364	0.256	0.788	0.63	0.689	0.402	1.05	0.667	0.73	0.527	0.391	0.33	0.346	0.439	0.932	0.821	0.958	0.929
NCI-H1915	0.241	0.26	0.268	0.25	0.978	0.839	0.924	0.845	0.324	0.292	0.303	0.285	0.705	0.62	0.716	0.689	0.892	0.829	0.855	0.901
